According to ChEMBL document CHEMBL1201862, “PubChem BioAssay data set” (2004):
Calls of active or inactive are those of the source. Cut-off read from the data, not from the text of the source, for most assays here: actives have a measured IC50 and inactives only a lower limit.

What was measured:
[1] = target: T1, Caspase-3 (Homo sapiens, UniProt P42574); assay type: functional;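 note: Dose-response selectivity test against caspase-3 for candidate inhibitors of sentrin-specific proteases (SENPs)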
T1 sequence (P42574 whole entry): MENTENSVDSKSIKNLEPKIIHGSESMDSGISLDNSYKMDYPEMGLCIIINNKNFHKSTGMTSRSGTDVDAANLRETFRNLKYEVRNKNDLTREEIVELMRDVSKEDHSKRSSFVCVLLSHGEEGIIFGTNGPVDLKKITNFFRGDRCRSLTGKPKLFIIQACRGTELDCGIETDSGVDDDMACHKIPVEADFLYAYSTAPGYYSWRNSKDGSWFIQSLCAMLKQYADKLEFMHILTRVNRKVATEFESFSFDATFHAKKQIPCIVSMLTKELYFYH

[2] = target: T2, Sentrin-specific protease 7 (Homo sapiens, UniProt Q9BQF6); assay type: functional;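 note: Luminescence-based dose-response confirmation of ultra-high-throughput screening hits, measuring inhibition of SENP7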
T2 sequence (Q9BQF6 whole entry): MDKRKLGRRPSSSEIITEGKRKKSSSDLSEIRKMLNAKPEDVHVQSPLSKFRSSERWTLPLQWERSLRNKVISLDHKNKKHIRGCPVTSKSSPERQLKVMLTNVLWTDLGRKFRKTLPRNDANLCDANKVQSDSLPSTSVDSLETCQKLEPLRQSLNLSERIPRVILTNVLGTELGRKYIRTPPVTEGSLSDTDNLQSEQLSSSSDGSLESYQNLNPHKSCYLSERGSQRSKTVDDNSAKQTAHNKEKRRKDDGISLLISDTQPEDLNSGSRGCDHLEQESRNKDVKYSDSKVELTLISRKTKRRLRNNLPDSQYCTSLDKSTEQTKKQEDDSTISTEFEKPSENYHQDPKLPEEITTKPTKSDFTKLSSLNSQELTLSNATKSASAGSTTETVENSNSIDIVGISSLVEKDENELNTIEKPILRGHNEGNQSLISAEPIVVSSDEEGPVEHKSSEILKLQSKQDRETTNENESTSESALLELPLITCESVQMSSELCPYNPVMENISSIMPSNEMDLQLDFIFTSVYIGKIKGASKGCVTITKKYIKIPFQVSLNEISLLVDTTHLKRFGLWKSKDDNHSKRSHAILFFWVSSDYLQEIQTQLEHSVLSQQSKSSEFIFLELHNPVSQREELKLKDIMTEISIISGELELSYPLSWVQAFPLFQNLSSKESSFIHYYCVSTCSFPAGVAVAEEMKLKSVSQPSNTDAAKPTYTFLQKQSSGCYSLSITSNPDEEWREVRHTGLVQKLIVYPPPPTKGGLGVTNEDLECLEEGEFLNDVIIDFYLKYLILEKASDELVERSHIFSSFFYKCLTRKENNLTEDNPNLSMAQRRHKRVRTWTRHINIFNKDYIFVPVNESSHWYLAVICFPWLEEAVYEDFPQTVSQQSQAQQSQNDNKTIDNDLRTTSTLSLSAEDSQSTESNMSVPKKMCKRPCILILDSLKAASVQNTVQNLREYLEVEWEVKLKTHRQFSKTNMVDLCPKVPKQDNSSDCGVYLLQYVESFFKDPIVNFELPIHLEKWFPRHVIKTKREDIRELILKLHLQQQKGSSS

[3] = target: T3, Sentrin-specific protease 6 (Homo sapiens, UniProt Q9GZR1); assay type: functional;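 note: Luminescence-based dose-response confirmatory assay of SENP6 inhibition, following up an ultra-high-throughput screen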
T3 sequence (Q9GZR1 whole entry): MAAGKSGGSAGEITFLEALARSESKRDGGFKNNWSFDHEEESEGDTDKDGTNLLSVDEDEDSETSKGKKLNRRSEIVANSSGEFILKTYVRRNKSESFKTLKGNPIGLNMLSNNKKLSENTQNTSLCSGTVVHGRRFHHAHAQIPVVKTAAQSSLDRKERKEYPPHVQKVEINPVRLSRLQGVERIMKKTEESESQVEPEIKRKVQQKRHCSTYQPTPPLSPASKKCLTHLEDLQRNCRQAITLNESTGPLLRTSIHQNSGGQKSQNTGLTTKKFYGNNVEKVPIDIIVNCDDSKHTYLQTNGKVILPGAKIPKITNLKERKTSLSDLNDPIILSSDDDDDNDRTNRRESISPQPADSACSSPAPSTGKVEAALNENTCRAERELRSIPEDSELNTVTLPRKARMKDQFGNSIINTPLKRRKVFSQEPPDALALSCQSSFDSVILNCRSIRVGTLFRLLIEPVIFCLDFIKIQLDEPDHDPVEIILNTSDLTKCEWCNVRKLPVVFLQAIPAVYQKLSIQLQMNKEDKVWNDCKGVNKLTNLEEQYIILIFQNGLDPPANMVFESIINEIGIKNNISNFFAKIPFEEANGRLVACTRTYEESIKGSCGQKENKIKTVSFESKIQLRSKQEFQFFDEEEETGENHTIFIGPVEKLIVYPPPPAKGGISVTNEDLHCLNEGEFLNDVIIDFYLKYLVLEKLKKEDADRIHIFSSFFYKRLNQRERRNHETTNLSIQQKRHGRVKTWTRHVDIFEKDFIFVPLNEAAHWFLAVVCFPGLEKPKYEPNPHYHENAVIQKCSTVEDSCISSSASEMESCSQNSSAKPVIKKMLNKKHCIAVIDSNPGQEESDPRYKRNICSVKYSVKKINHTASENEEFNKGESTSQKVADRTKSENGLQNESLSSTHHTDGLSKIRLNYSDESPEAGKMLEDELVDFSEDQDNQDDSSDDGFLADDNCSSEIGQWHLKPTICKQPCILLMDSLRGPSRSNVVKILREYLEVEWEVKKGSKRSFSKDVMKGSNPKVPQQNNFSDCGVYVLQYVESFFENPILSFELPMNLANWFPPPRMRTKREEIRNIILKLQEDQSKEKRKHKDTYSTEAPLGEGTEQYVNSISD

[4] = target: T4, Sentrin-specific protease 8 (Homo sapiens, UniProt Q96LD8); assay type: functional;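 note: luminescence read-out of SENP8 inhibition, dose-response confirmation following an ultra-high-throughput screen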
T4 sequence (Q96LD8 whole entry): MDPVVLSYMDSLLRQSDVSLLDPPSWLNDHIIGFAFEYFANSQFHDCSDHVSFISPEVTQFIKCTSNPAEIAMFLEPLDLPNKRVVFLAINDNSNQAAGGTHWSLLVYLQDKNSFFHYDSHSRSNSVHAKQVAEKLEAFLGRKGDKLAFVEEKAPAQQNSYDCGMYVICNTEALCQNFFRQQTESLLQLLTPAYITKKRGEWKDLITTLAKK

[5] = target: G2/mitotic-specific cyclin-B1 (Homo sapiens, UniProt P14635); assay: Counterscreen assay for inhibitors of Wee1 degradation: dose response cell-based assay to identify inhibitors of cyclin B degradation. [Related pubchem assays: 1410, 1321 ]; assay type: functional
[6] = inhibitors of SNCA 5'UTR-driven reporter translation, confirmation, H4 neuroglioma cells, luminescence (AID 1988); assay type: functional, cell-based

Chain of G2/mitotic-specific cyclin-B1 (P14635 whole entry): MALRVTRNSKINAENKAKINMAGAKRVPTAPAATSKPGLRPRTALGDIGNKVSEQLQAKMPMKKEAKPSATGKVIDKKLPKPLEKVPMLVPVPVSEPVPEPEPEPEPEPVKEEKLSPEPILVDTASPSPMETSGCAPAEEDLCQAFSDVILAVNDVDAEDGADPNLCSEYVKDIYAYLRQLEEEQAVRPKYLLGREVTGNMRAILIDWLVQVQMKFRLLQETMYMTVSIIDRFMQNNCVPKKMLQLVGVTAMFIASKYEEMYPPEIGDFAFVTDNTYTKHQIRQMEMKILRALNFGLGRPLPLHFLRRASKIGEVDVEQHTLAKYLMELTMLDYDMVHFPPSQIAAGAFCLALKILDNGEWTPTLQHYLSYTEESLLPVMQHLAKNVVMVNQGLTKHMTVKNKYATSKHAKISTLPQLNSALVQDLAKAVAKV

Nc1ccc(N2CCCCC2)c2nonc12
active: IC50 [1] 36.9 µM | IC50 [2] 17.1 µM | IC50 [3] 9.43 µM | IC50 [4] 10.2 µM

Cc1ccc(S(=O)(=O)/N=C2\C=C(Nc3cccc(C(=O)O)c3)C(=O)c3ccccc32)c(C)c1
active: IC50 [1] 11.2 µM | IC50 [2] 3.3 µM | IC50 [3] 0.819 µM | IC50 [4] 1.78 µM

COc1ccc(NC(=O)/C(Cl)=C(/Cl)[S+]([O-])Cc2ccccc2)cn1 (stereo not given)
active: EC50 [5] > 1.84 µM | EC50 [6] 4.57 µM
